From PMC6345779, “Hypoculoside, a sphingoid base-like compound from Acremonium disrupts the membrane integrity of yeast cells” (Scientific Reports, 2019)

Test system: Saccharomyces cerevisiae diploid wild-type strain (BY4743)
Assay: Growth inhibition of wild type Saccharomyces cerevisiae in YPD medium (96-well, OD600)
Assay type: cell-based
Procedure: Figure 5 Structure-activity studies of hypoculoside. (A) Wild type strain (BY4743), vps35Δ, pep8Δ, vps20Δ, vps27Δ and vps36Δ strains were grown in YPD medium in the presence of hypoculoside or hypoculine at the indicated concentrations. Normalized growth at the different concentrations of hypoculoside and hypoculine tested after 24 hours of incubation at 30 °C is plotted for each strain. (B) Wild type strain (BY4743), vps35Δ, pep8Δ, vps20Δ, vps27Δ and vps36Δ strains were grown in YPD medium in the presence of hypoculoside or phytosphingosine or dihydrosphingosine at the indicated concentrations. Normalized growth at the different concentrations of hypoculoside, phytosphingosine and dihydrosphingosine tested after 24 hours of incubation at 30 °C is plotted for each strain.
Susceptibility of Candida albicans strain SC5314 to hypoculoside and amphotericin B was determined by a broth microdilution assay using Clinical Laboratory Standards Institute (CLSI) guidelines. Cells grown to exponential phase in YPD medium (1% Yeast extract, 2% Bacto peptone and 2% glucose) were harvested, washed and resuspended in RPMI 1640 medium at a density of 2×10^3 cells/mL. RPMI 1640 medium with L-glutamine without sodium bicarbonate (Sigma) was buffered with 0.165 M morpholinepropanesulfonic acid (MOPS) to a pH of 7.0. Two-fold dilutions of hypoculoside and amphotericin B were prepared such that final concentration of DMSO was 1% in all cultures. Cell suspension was distributed in microtiter plate (200 µL/well) and incubated at 35 °C with 220 rpm for 24 h. The Saccharomyces cerevisiae diploid wild-type strain (BY4743) was used for determining the Inhibitory Concentration (IC) of hypoculoside. Frozen yeast cells were allowed to recover on YPD agar plates and grown in YPD medium for nine generations (OD600 nm ≤ 2). Cells were diluted to OD600 nm of 0.0625 in YPD medium. 200 μL of the diluted yeast culture was transferred into the 96-well microtiter plate having 2-fold serially diluted concentrations of hypoculoside. Cells were incubated in a microplate reader for 16–24 hours at 30 °C with shaking. IC of hypoculoside was computed by comparing the growth of treated versus control cells.

With CC(N)C(O)CCCCCCCCCCCCCCCCCCC(O)C(C)OC1OC(CO)C(O)C(O)C1O (stereo not drawn) [hypoculoside, Hypoculoside] the “concentration that inhibited the growth of wild type cells” value (BY4743, YPD, 24 hours at 30 °C (Fig. 5A)) was 11 µM, the IC50 (Saccharomyces cerevisiae, read-out: IC50 for growth of Saccharomyces cerevisiae cells) was 7.2 µM and the inhibition at 5.5 µM (Saccharomyces cerevisiae, 5.5 µM, YPD, 24 hours at 30 °C) was 10%.
